Results on two compounds are retold here after patent US8664252B2, “Phosphodiesterase type III (PDE III) inhibitors or CA2+-sensitizing agents for the treatment of hypertrophic cardiomyopathy” (Boehringer Ingelheim Vetmedica GmbH, priority 2008, dated 2014).

This experiment has as its system Cats Suffering from HCM. Nature of the experiment: Treatment of a cat suffering from HCM with acute circulatory failure (clinical case). The class given is in vivo. As for the experimental part: A 15 year old castrated male tomcat of mixed breed (mother Persian, father European short hair, bodyweight 6 kg) was brought to the veterinary clinic in March 2008. The animal was lethargic and unable to move. Examination of the cardiovascular system indicated acute circulatory failure, accompanied with tachycardia (>180 bpm). Echocardiographic investigation indicated a thickened left ventricular wall and septum, which are related to HCM.
Because of the desperate situation 1.25 mg pimobendan were applied orally with the expectation/fear that this measure would/could probably further deteriorate the status of the cat.
This treatment is still being continued.

`NS(=O)(=O)c1cc(C(=O)O)c(NCc2ccco2)cc1Cl` [furosemide]: where the note is “15 year old tomcat with HCM, 6 kg, furosemide 1 mg/kg i.v., immediate administration”, the “control of acute circulatory failure (clinical situation)” value was “did not result in a sufficient control of the situation”.
As to `COc1ccc(-c2nc3cc(C4=NNC(=O)CC4C)ccc3[nH]2)cc1` (stereo not drawn) [pimobendan, 4,5-dihydro-6-[2-(4-methoxyphenyl)-1H-benzimidazol-5-yl]-5-methyl-3 (2H)-pyridazinone], for the setting “same cat, after insufficient furosemide, 1.25 mg pimobendan orally, single application”, the “clinical symptoms / recovery” value was “clinical symptoms improved and the cat recovered within a few hours”. The “left ventricular filling and systolic function (ultrasound)” value (same cat, continued treatment 20 microgram/kg/day pimobendan orally) was “significant recovery of left ventricular filling and systolic function”.
